In series [1] the test system is FaDuDD tumors. Description: BIWI 1 combination with cisplatin in nude mice xenografted with FaDuDD tumors. The following applies: cisplatin 4 mg/kg i.v. q7dx4. The class given is in vivo, mouse. The method, then:
(§1) The antibody solution was injected into the tail vein with an injection volume of 200 μl for a 25 g mouse. In the control groups without BIWI 1 treatment animals were injected i.v. with PBS. […] The solution was injected into the tail vein with an injection volume of 200 μl for a 25 g mouse. […] The solution was injected into the tail vein with an injection volume of 200 μl for a 25 g mouse.
(§2) Tumor sizes and body weights were recorded 2-3 times per week. Tumor sizes were measured with a calliper (length and width) and the volume was calculated according to the following formula: volume (length)×(width)^2×([…]). The tolerability of the treatment was monitored by measuring mouse weight during the whole observation period. […] For calculation of the mean tumor volumes per group, the last values of tumor size for individual animals were carried forward in case that these animals had to be sacrificed due to large tumor burden before the whole group was terminated. In addition to the absolute tumor volume in mm^3, the relative tumor volumes (RTV) were calculated as follows:
(§3) RTV=(tumor volume at day x)/(tumor volume at start of treatment)×100 For the evaluation of treatment efficacy the following parameters were calculated: • T/C (%)=(mean RTV of treated group)/(mean RTV of control group)×100 • T4T (tumor quadrupling time)=time until the mean RTV reaches 400% • GDF4 (growth delay factor)=T4T treated/T4T control.
(§4) In addition, for some experiments, the mean time for tumors to reach 8 times (T8T) their initial sizes were also calculated. The growth delay factor (GDF8) was then calculated accordingly. Percentages of mean relative tumor volumes of treated versus control groups (T/C) were calculated on the days indicated. For statistical evaluation of combination therapies exact Wilcoxon tests were used. Tolerability was assessed by monitoring body weight changes.
A different set of experiments was done with cisplatin. In a pilot experiment, a dose of 4 mg/kg cisplatin administered i.v. four times in weekly intervals was determined to be non-curative in this model, and also represents the maximum tolerated dose in the mouse strain used. This dose of cisplatin was combined with BIWI 1 at the non-curative doses of 200 μg/kg DM1 and 300 Ag/kg DM1 already used in the previous experiment. […] In the latter combination group 2/8 complete tumor regressions could be observed. […] Treatment was well tolerated in all groups.

The nature of series [2]: Tolerability in FaDu combination experiments (body weight). The class given is in vivo, mouse. The method, then: as §2, with “follows: […]” for “follows:”
as §4

The test system of series [3] is FaDu tumors. Description: BIWI 1 monotherapy in FaDu xenografted nude mice. Format: in vivo, mouse. The following applies: 21 mg/kg/d control antibody i.v., five consecutive days. The protocol:
(§5) In vivo anti-tumor efficacy of BIWI 1 was tested in three nude mouse xenograft models applying antigen-positive human tumors: A431 (ATCC # CRL 1555; epidermoid carcinoma of the vulva), FaDu (ATCC # HTB 43; squamous cell carcinoma of the pharynx), and MDA-MB 453 (ATCC # HTB-131; breast carcinoma). The cells were received from ATCC and cultured in RPMI1640 medium containing 10% fetal calf serum and supplements. 1×10^6 tumors cells were transplanted subcutaneously into the right flank of 6 week old female NMRI-nu/nu mice. Tumor growth was monitored by measuring tumor size. A tumor response was rated as complete response when the tumor completely disappeared at any time after start of treatment. The response was rated as partial response when the tumor volume decreased after treatment but thereafter started regrowing. The tolerability of the treatment was monitored by measuring mouse weight during the observation period.
Mice were randomised into the following treatment groups (treatment/initial mean tumor volume/tumor volume range/number of mice): • Group 1: Control (PBS)/142±82 mm^3/34-268 mm^3 /8 mice. • Group 2: BIWA 4 (21 mg/kg/d)/134±86 mm^3/42-268 mm^3/6 mice. • Group 3: BIWI 1 (2.1 mg/kg/d) 149±96 mm^3/50-268 mm^3/6 mice. • Group 4: BIWI 1 (7 mg/kg/d)/132±97 mm^3 42-268 mm^3/6 mice. • Group 5: BIWI 1 (21 mg/kg/d)/129±74 mm^3/50-231 mm^3/6 mice.
Groups of 6 mice were treated with 2.1 mg/kg/d BIWI 1, 7 mg/kg/d BIWI 1, 21 mg/kg/d BIWI 1, and 21 mg/kg/d control antibody, respectively. Treatment consisted of i.v. injections of BIWI 1 given on five consecutive days, starting at day 1. […] The remaining 2 tumors grew similar to untreated control tumors.

In another series the test system is A431 tumors. Description: BIWI 1 monotherapy in A431 xenografted nude mice. The class given is in vivo, mouse. The conditions noted are these: 21 mg/kg/d control antibody i.v., five consecutive days. The protocol: as §5
Mice were randomised into the following treatment groups (treatment/initial mean tumor volume/tumor volume range/number of mice): • Group 1: Control (PBS)/185±217 mm^3/19-424 mm^3/5 mice. • Group 2: BIWA 4 (21 mg/kg/d)/133±115 mm^3/42-302 mm^3/5 mice. • Group 3: BIWI 1 (2.1 mg/kg/d)/107±63 mm^3/42-205 mm^3′/5 mice. • Group 4: BIWI 1 (7 mg/kg/d)/132±73 mm^3/42-205 mm^3/5 mice. • Group 5: BIWI 1 (21 mg/kg/d)/107±[…]/42-205 mm^3/5 mice.
Groups of 5 mice were treated with 2.1 mg/kg/d BIWI 1, 7 mg/kg/d BIWI 1, 21 mg/kg/d BIWI 1, and 21 mg/kg/d control antibody, respectively. Treatment consisted of i.v. injections of BIWI 1 given on five consecutive days, starting at day 1.

The subject of series [4] is antigen-positive FaDu cells. Briefly: In vitro binding to FaDu cells (FACS). The following applies: 1 hour on ice, FITC-labeled anti-human IgG, read-out: apparent KD. The protocol:
The binding of BIWA 4 antibody and BIWI 1 conjugate to antigen-positive FaDu cells was determined. Cells ([…]) were incubated in 96-well plates with varying concentrations of antibody or conjugate on ice for 1 hour. The test article was washed from the plate and FITC-labeled anti-human IgG was added and the incubation on ice was continued in the dark for 1 hour. After washing, the cells were fixed with 1% paraformaldehyde and analyzed on a fluorescence activated cell sorter (FACS).

Series [5] deals with MDA-MB-453 tumors.
Procedure: Experiments were performed using nude mice xenografted subcutaneously with the human breast carcinoma cell line MDA-MBA53. […] The efficacy of these combinations was compared to those of the respective monotherapies by i) analysing the tumor volumes over time and ii) by determining the time for tumors to reach a certain size (tumor growth delay).
The dilutions were prepared freshly for each application or stored at +4° C. during the whole treatment period. […] 200 μl of solutions with different concentrations were injected into the tail vein. Docetaxel (Taxotere®, Aventis, 10 mg/ml) was diluted in 0.9% NaCl. 200 μl of solutions with different concentrations were injected into the tail vein.
Briefly, 1×10^7 MDA-MB-453 cells (ATCC No. HTB-131) were injected into the mammary fat pad of female NMRI nu/nu mice. After reaching a volume of approximately 1000 mm^3 tumors were excised, cut into 4×4 mm pieces and passaged further subcutaneously. Tumor fragments were cryoconserved in 90% RPMI 1640/10% dimethylsulfoxide (slow freezing process down to −80° C., storage in liquid nitrogen). For further passaging, frozen tumor fragments were thawed, washed 3 times in PBS and implanted subcutaneously into the right and left flanks of a 4-5 female NMRI nu/nu mice. Tumors of these mice were then used to prepare the animals for a therapy experiment. Tumors were excised with a size of approximately 10 mm in diameter, cut into 2×2 mm pieces and implanted subcutaneously into the right flank of 6-8 week old female NMRI nu/nu mice. Approximately twice as many animals as needed for the experiment were prepared. When tumors reached a size of 5-10 mm in diameter (10-14 days after implantation), animals were randomised and treatments were started. Animals were obtained from Harlan (Germany) or M&B (Denmark). Tumor sizes and body weights were recorded as described in Section 2.7.
The subject of series [6] is FaDuDD tumors. Briefly: BIWI 1 combination with docetaxel in nude mice xenografted with FaDuDD tumors. Format: in vivo, mouse. The conditions noted are these: docetaxel 3 mg/kg i.v. q7dx4. The method, then:
as §1, §2, §3, §4
To assess the efficacy of BIWI 1 in combination with the taxane docetaxel (Taxotere), non-curative doses of both drugs were tested as single agents or in combination in nude mice xenografted with FADuDD tumors. In pilot experiments a dose of 3 mg/kg docetaxel (q7dx4) was determined to be non-curative in this model. BIWI 1 was used at the non-curative dose of 200 μg/kg DM 1 and at a somewhat higher dose (300 μg/kg DM1).
The effect was somewhat more pronounced in the two BIWI 1 monotherapy treatment groups with T/C 41-30% and GDF4: 2.8-4.4. Complete tumor regression could be observed in 1/8 cases with the higher BIWI 1 dose. […] Treatment was well tolerated in all groups, except for a slight unexplained weight loss (approx. −5%) in the docetaxel monotherapy group.

The subject of series [7] is MDA-MB-453 tumors. Description: BIWI 1 combination with doxorubicin in nude mice xenografted with MDA-MB-453 tumors. The class given is in vivo, mouse. The following applies: doxorubicin 6 mg/kg i.v. q7dx4.
Procedure: Similar experiments as outlined under Section 2.6 were undertaken in a human breast carcinoma xenograft model. Experiments were performed using nude mice xenografted subcutaneously with the human breast carcinoma cell line MDA-MBA53. […] The efficacy of these combinations was compared to those of the respective monotherapies by i) analysing the tumor volumes over time and ii) by determining the time for tumors to reach a certain size (tumor growth delay).
The dilutions were prepared freshly for each application or stored at +4° C. during the whole treatment period. […] Doxorubicin (Doxorubicin “Ebewe”®, 2 mg/ml) was diluted in PBS. 200 μl of solutions with different concentrations were injected into the tail vein. Docetaxel (Taxotere®, Aventis, 10 mg/ml) was diluted in 0.9% NaCl. 200 μl of solutions with different concentrations were injected into the tail vein.
The xenograft model was handled slightly different as outlined under Section 2.1. Briefly, 1×10^7 MDA-MB-453 cells (ATCC No. HTB-131) were injected into the mammary fat pad of female NMRI nu/nu mice. After reaching a volume of approximately 1000 mm^3 tumors were excised, cut into 4×4 mm pieces and passaged further subcutaneously. Tumor fragments were cryoconserved in 90% RPMI 1640/10% dimethylsulfoxide (slow freezing process down to −80° C., storage in liquid nitrogen). For further passaging, frozen tumor fragments were thawed, washed 3 times in PBS and implanted subcutaneously into the right and left flanks of a 4-5 female NMRI nu/nu mice. Tumors of these mice were then used to prepare the animals for a therapy experiment. Tumors were excised with a size of approximately 10 mm in diameter, cut into 2×2 mm pieces and implanted subcutaneously into the right flank of 6-8 week old female NMRI nu/nu mice. Approximately twice as many animals as needed for the experiment were prepared. When tumors reached a size of 5-10 mm in diameter (10-14 days after implantation), animals were randomised and treatments were started. Animals were obtained from Harlan (Germany) or M&B (Denmark). Tumor sizes and body weights were recorded as described in Section 2.7.
The nature of series [8]: Tolerability in MDA-MB-453 combination experiments (body weight). Format: in vivo, mouse. The following applies: doxorubicin 6 mg/kg monotherapy group; combination group with BIWI 1 75 μg/kg DM1; 6 animals per group. The protocol: as §2, with “follows: […]” for “follows:”
as §4

The next series deals with cells. The conditions noted are these: free DM1, literature background; cited from earlier work.
Series [9] relates to FaDu tumors. Briefly: BIWI 1 combination therapy with paclitaxel in the FaDu xenograft model. The class given is in vivo, mouse. The following applies: or both. The protocol:
as §5
Mice were randomised into the following treatment groups (treatment/initial mean tumor volume/tumor volume range/number of mice): • Group 1: Control (PBS)/197 mm^3/65-402 mm^3/8 mice • Group 2: Paclitaxel/182 mm^3 /65%-302 mm^3/8 mice • Group 3: BIWI 1/208 mm^3 /65-382 mm^3/8 mice • Group 4: BIWI 1+paclitaxel/159 mm^3 /79-335 mm^3 /7 mice
Treatment consisted either of five i.v. injections of BIWI 1 (7 mg/kg corresponding to 100 μg/kg DM1) at day 1, 3, 5, 8, 10, or of six i.p. injections of paclitaxel (10 mg/kg) at day 2, 4, 6, 9, 11, 13, respectively, or a combination thereof. Control animals were treated with PBS.
One tumor completely dissappeared during treatment and the animal remained tumor free until the end of the observation period.

The test system of series [10] is breast carcinoma xenografts. Briefly: BIWI 1 (five daily doses) combination with paclitaxel in human breast carcinoma xenograft model. The class given is in vivo, mouse. The method, then:
BIWI was given i.v. into the tail vein at doses of 50 μg DM1/kg/day or 100 μg DM1/kg/day for five consecutive days. Paclitaxel (Taxol®) was given i.v. at 20 or 10 mg/kg, doxorubicin (Adriamycin®) at 6 or 4 mg/kg only on the first day of the treatment period, in each case 4 hours after BIWI 1 treatment. In mice bearing breast carcinoma xenografts with a volume of approximately 100 mm3.
For orientation: In xenograft studies the graft and the host belong to different species.

[11] abbreviates: BIWI 1 7 mg/kg i.v. x5, paclitaxel 10 mg/kg i.p. x6.

The source of these data is patent US20050244413A1, “Compositions and methods for treating cancer using cytotoxic CD44 antibody immunoconjugates and chemotherapeutic agents” (priority 2002, published 2005).

pKd: −log10 of the molar value. Where “and” joins values, the source holds several entries; their conditions need not be identical. Equal values may be shown once. Read-outs that look alike come from different tables or passages of the source.

The term pKd denotes −log10 of the Kd, conventionally taken in molar units.

As for `N.N.[Cl][Pt][Cl]` [Cisplatin, reference compound], in the series with FaDuDD tumors [1], the GDF4 was determined as 1.1, the “T4T” value is 11.3 days and the “T/C (d 19)” value stood at 100%. Besides, the “maximum tolerated dose in the mouse strain used” value in series [2] (cisplatin i.v. four times in weekly intervals, pilot experiment) came out at 4 mg/kg.

In the case of BIWA 4, in the series on FaDu tumors [3], the anti-tumor effect result is reported as “no anti-tumor effect” and the “tumor volume doubling time” value is listed as “approximately 5 days”. For the same compound, in the series with A431 tumors, the anti-tumor effect result is recorded as “no anti-tumor effect” and the “tumor volume doubling time” value is on record as “approximately 5 days”. The negative logarithm of the Kd (pKd) in [4] is 9.00.

Turning to `CC(=O)O[C@@]12CO[C@@H]1C[C@H](O)[C@@]1(C)C(=O)[C@H](O)C3=C(C)[C@@H](OC(=O)[C@H](O)[C@@H](NC(=O)OC(C)(C)C)c4ccccc4)C[C@@](O)([C@@H](OC(=O)c4ccccc4)[C@H]21)C3(C)C` [Docetaxel], in the series with MDA-MB-453 tumors [5] (docetaxel 3 mg/kg i.v. q7dx4), the GDF4 is 0.8, the “T4T” value amounted to 9.0 days and the “T/C (d 16)” value is listed as 102%. Further, in the series with MDA-MB-453 tumors [5] (docetaxel 6 mg/kg i.v. q7dx4), the GDF4 was 1.3; the “T4T” value is 14 days and 13.9 days; the “T/C (d 16)” value is listed as 71%. In series [2] (docetaxel monotherapy group 3 mg/kg q7dx4, FaDuDD xenografted mice), the weight loss entry is given as “approx. −5%”. Besides, in the series with FaDuDD tumors [6], the GDF4 came to 1.9, the “T4T” value was determined as 13.5 days and the “T/C (d 16)” value was 56%.

Consider `COc1cccc2c1C(=O)c1c(O)c3c(c(O)c1C2=O)C[C@@](O)(C(=O)CO)C[C@@H]3O[C@H]1C[C@H](N)[C@H](O)[C@H](C)O1` [Doxorubicin, reference compound], for which, in the series with MDA-MB-453 tumors [7], the GDF4 is reported as 1.0 and the “T/C (d13)” value is 66%. Also, the “animals with transient weight loss of more than 12%” value in [8] is on record as “two”.

As to `COc1cc2cc(c1Cl)N(C)C(=O)C[C@H](OC(=O)[C@H](C)N(C)C(=O)CCS)[C@]1(C)O[C@H]1[C@H](C)[C@@H]1C[C@@](O)(NC(=O)O1)[C@H](OC)/C=C/C=C(\C)C2` [DM1, N^2′-deacetyl-N^2′-(3-mercapto-1-oxopropyl)-Maytansine], the “concentration toxic to cells in vitro” value in the series on cells was “about 10^−10 M”.

Consider `CC(=O)O[C@H]1C(=O)[C@@]2(C)[C@H]([C@H](OC(=O)c3ccccc3)[C@]3(O)C[C@H](OC(=O)[C@H](O)[C@@H](NC(=O)c4ccccc4)c4ccccc4)C(C)=C1C3(C)C)[C@]1(OC(C)=O)CO[C@@H]1C[C@@H]2O` [Paclitaxel, reference compound], for which, in the series on FaDu tumors [9] (BIWI 1 7 mg/kg i.v. day 1,3,5,8,10, paclitaxel 10 mg/kg i.p. day 2,4,6,9,11,13), the “Initial Tumor Doubling Time” value stood at 7 days. Further, the “Complete Regression” value in the series with FaDu tumors [9] (setting [11]) is on record as 0/8. Moreover, the “Growth Delay Factor” value in the series with FaDu tumors [9] (setting [11]) was found to be 0.75. Moreover, the “T/C (median relative tumor volumes of treated versus control groups)” value in [10] (paclitaxel monotherapy 10 mg/kg i.v. on first day) amounted to 50%; in series [10] (paclitaxel monotherapy 20 mg/kg i.v. on first day) it was 13%.
